Laboratory results as given in patent publication US10745384B2, “Indazole derivatives as αv integrin antagonists” (BRISTOL-MYERS SQUIBB COMPANY, priority 2016, dated 2020).
Counter-ions that a name gives are not always drawn.

Key:
human αVβ6 = target: T1, human αVβ6 (Homo sapiens, UniProt P06756+P18564); assay: human αVβ6 HTRF binding assay; details: recombinant human αVβ6 integrin, FITC-conjugated fibronectin
T1 construct: purchased R & D systems 3817-AV
Method in brief: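 HTRF binding in 20 mM Tris pH 7.4 with 1 mM MgCl2, 1 mM MnCl2, 0.01% Tween 20 and 0.01% BSA. For αVβ6, biotinylated integrin (1.25 nM) and FITC-fibronectin (5 nM) were incubated 1 h at RT, then streptavidin-terbium (0.625 nM) was added overnight in the dark. An SPA-based fibronectin binding format was an alternative.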

human αVβ5 = human αVβ5 (Homo sapiens, UniProt P06756+P18084); assay: human αVβ5 HTRF binding assay
Method: (§1) All binding assays used the HTRF (homogeneous time resolved fluorescence) technology from Cisbio International, therefore all assays are described as HTRF binding assays. The assay results for the Examples are listed above together with the characterization data. The HTRF binding assays are established for the following integrins: human αVβ6, human αVβ1, human αVβ3, human αVβ5, and human αVβ8. All assays used the following assay buffer: 20 mM Tris, pH 7.4, 1 mM MgCl2, 1 mM MnCl2, 0.01% Tween 20, and 0.01% BSA. Alternatively, a SPA-based assay was used for evaluation of receptor binding.
(§2) The following describes the components and a representative procedure for the human αVβ6 HTRF binding assay: Recombinant human αVβ6 Integrin (R & D systems, 3817-AV) was biotinylated. Biotinylated human αVβ6 Integrin was added to assay vessel at a final concentration of 1.25 nM. FITC-conjugated fibronectin (Cytoskeleton, FNR02) was then added at the final concentration of 5 nM. The mixture was centrifuged at 600 rpm for three minutes using Thermo Fisher Heraeus Multifuge X3 centrifuge and then incubated at room temperature for an hour. Streptavidin Terbium (Cisbio international 610STLB) was then added at the final concentration of 0.625 nM. The resulting mixture was centrifuged at 600 rpm for three minutes using Thermo Fisher Heraeus Multifuge X3 centrifuge and then incubated at room temperature overnight in dark before reading HTRF signals. […]

human αVβ8 = human αVβ8 (Homo sapiens, UniProt P06756+P26012); assay: human αVβ8 HTRF binding assay
Method: as §1, §2

human αVβ1 = human αVβ1 (Homo sapiens, UniProt P05556+P06756); assay: human αVβ1 HTRF binding assay
Method: as §1
The following describes the components and a representative procedure for the human αVβ6 HTRF binding assay: Recombinant human αVβ6 Integrin (R & D systems, 3817-AV) was biotinylated. Biotinylated human αVβ6 Integrin was added to assay vessel at a final concentration of 1.25 nM. FITC-conjugated fibronectin (Cytoskeleton, FNR02) was then added at the final concentration of 5 nM. The mixture was centrifuged at 600 rpm for three minutes using Thermo Fisher Heraeus Multifuge X3 centrifuge and then incubated at room temperature for an hour. Streptavidin Terbium (Cisbio international 610STLB) was then added at the final concentration of 0.625 nM. The resulting mixture was centrifuged at 600 rpm for three minutes using Thermo Fisher Heraeus Multifuge X3 centrifuge and then incubated at room temperature overnight in dark before reading HTRF signals.
The SPA-based assay was carried out according to the protocol and procedures similar to the ones described in the following reference with appropriate modifications to agents and ligands which are readily understood by one skilled in the art: Pachter J A, Zhang R, Mayer-Ezell R., “Scintillation proximity assay to measure binding of soluble fibronectin to antibody-captured αVβ1 integrin” Anal Biochem. 1995 Sep. 1; 230(1):101-7.

human αVβ3 = human αVβ3 (Homo sapiens, UniProt P05106+P06756); assay: human αVβ3 HTRF binding assay
Method: as §1, §2

Chain of human αVβ5 (P06756 31-992 limits assumed): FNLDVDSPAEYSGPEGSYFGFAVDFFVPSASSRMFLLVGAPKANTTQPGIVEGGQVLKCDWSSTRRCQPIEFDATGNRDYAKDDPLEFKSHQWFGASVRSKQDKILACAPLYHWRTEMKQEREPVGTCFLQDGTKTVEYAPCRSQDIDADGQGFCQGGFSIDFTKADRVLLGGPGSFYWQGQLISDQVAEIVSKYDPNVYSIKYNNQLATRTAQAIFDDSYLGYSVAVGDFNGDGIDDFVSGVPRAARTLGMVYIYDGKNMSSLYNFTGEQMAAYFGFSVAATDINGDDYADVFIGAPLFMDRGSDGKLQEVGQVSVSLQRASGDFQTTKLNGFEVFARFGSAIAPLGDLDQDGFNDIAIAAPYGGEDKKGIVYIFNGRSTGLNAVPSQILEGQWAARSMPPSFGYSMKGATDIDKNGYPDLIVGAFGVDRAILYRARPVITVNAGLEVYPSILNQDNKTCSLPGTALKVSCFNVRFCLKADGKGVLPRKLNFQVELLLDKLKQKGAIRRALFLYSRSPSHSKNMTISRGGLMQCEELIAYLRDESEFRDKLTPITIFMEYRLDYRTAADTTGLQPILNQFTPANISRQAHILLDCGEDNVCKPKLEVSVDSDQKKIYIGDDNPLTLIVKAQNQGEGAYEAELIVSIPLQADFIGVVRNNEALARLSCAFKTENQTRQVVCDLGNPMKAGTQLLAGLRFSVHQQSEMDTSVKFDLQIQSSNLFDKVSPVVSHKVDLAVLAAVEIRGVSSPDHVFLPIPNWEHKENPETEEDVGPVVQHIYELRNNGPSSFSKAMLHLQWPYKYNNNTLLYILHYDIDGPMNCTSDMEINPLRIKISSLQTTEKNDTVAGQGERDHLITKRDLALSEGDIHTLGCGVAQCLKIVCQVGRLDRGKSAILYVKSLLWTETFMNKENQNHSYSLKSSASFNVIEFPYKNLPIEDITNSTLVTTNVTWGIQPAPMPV
Chain of human αVβ5 (P18084 24-719 limits assumed): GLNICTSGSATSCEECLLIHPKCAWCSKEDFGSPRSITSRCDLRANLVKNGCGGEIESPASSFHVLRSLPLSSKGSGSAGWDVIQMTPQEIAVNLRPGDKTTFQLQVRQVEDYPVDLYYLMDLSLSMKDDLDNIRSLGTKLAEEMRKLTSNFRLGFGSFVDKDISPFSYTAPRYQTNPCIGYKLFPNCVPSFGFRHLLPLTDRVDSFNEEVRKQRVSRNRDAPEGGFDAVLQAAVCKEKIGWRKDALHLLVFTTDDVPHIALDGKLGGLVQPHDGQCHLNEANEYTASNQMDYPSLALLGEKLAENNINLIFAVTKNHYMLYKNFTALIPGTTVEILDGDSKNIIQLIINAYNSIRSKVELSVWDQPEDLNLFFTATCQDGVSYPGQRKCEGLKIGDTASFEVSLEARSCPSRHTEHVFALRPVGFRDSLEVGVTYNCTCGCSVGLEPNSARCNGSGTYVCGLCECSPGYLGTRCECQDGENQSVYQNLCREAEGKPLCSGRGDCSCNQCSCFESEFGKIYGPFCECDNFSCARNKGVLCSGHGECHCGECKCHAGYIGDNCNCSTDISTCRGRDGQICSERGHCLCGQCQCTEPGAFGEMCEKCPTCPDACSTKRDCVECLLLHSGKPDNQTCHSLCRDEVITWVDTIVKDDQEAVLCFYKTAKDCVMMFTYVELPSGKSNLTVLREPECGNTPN
T1 sequence (P06756 31-992 limits assumed): as the sequence (P06756 31-992 limits assumed) above
T1 sequence (P18564 22-707 limits assumed): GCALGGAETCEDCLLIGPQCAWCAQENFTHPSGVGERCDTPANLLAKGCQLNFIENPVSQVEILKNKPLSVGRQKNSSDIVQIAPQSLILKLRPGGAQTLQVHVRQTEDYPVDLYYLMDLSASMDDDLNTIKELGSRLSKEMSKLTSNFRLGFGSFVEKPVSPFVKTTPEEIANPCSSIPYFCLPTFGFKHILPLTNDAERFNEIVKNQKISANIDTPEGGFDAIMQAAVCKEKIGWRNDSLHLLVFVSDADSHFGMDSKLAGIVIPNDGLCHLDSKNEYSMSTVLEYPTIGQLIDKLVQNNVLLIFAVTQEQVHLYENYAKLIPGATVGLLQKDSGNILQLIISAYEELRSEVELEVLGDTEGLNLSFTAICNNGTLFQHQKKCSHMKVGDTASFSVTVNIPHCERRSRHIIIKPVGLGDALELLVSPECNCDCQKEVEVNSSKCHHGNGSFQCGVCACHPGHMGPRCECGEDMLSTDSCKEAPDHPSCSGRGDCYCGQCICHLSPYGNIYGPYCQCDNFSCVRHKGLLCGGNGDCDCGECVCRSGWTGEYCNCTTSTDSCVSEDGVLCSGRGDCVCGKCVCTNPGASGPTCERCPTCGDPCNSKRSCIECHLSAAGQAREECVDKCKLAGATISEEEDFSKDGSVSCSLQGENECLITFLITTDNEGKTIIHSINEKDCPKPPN
Chain of human αVβ3 (P06756 31-992 limits assumed): as the sequence (P06756 31-992 limits assumed) above
Chain of human αVβ3 (P05106 27-718 limits assumed): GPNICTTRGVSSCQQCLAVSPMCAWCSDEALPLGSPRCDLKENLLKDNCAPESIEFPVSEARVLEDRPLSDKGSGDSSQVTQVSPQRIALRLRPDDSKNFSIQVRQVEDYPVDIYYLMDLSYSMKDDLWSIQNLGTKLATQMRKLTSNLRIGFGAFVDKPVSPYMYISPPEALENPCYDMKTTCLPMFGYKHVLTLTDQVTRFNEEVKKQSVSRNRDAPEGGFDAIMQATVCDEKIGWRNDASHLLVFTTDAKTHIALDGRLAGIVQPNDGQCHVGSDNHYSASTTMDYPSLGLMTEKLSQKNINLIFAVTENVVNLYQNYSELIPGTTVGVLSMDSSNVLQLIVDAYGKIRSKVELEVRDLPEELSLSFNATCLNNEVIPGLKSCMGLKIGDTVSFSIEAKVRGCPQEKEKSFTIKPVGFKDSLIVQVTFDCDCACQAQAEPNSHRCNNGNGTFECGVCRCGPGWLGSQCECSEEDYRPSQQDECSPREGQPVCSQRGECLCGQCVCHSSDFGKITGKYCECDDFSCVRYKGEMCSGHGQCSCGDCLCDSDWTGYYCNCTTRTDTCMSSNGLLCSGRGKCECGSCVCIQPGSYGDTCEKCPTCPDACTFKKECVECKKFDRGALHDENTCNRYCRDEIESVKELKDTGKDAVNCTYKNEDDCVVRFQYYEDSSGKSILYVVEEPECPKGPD
Chain of human αVβ8 (P06756 31-992 limits assumed): as the sequence (P06756 31-992 limits assumed) above
Chain of human αVβ8 (P26012 43-684 limits assumed): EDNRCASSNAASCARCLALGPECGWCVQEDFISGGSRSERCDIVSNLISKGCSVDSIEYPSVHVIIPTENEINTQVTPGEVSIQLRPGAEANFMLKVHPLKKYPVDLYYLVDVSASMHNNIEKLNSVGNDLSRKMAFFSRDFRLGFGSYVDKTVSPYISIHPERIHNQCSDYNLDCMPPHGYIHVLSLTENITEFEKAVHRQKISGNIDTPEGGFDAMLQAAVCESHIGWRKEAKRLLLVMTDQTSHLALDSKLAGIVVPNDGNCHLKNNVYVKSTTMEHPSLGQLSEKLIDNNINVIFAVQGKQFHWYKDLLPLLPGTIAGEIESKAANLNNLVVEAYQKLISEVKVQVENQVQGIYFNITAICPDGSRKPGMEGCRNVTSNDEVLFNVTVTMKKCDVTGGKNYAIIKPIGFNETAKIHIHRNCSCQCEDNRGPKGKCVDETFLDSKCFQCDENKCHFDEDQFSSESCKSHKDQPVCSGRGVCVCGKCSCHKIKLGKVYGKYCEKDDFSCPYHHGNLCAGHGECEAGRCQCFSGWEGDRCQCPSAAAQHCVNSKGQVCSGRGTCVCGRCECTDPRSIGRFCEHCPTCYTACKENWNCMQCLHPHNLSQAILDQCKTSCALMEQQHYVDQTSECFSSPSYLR
Chain of human αVβ1 (P06756 31-992 limits assumed): as the sequence (P06756 31-992 limits assumed) above
Chain of human αVβ1 (P05556 21-728 limits assumed): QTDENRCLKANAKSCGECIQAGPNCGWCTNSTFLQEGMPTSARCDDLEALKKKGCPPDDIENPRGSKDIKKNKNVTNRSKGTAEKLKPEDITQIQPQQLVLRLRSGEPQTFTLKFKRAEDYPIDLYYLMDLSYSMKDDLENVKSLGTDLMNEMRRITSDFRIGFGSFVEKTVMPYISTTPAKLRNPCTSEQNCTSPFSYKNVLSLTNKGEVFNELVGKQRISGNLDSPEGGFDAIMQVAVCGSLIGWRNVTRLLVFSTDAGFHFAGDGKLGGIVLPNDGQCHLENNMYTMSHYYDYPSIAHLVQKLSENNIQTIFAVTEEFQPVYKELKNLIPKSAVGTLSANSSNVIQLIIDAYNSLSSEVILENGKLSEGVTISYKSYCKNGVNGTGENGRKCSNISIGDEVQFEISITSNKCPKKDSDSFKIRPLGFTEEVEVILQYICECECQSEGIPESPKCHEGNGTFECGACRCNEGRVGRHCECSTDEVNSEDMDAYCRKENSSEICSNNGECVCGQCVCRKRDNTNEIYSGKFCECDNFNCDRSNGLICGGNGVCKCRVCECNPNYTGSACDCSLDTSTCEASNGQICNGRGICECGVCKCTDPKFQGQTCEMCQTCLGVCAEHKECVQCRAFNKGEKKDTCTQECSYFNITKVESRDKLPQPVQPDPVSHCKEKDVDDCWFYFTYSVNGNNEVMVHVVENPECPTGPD

SMILES	IC50 (human αVβ6) [nM]	IC50 (human αVβ5) [nM]	IC50 (human αVβ8) [nM]	IC50 (human αVβ1) [nM]	IC50 (human αVβ3) [nM]
O=C(O)C[C@@H](c1cnc2ccccc2c1)n1cc2ccc(CCCc3ccc4c(n3)NCCC4)cc2n1 [Example 87, (S)-3-(Quinolin-3-yl)-3-(6-(3-(5,6,7,8-tetrahydro-1,8-naphthyridin-2-yl)propyl)-2H-indazol-2-yl)propanoic acid]	1.3	3.2	3300	10000	2.3
O=C(O)CC(c1cncc(CO)c1)n1ncc2cc(OCCc3ccc4c(n3)NCCC4)ccc21 (centres unmarked) [Example 89, 3-(5-(Hydroxymethyl)pyridin-3-yl)-3-(5-(2-(5,6,7,8-tetrahydro-1,8-naphthyridin-2-yl)ethoxy)-1H-indazol-1-yl)propanoic acid]	19	0.42	5000	370	3.1
COc1ncc(C(CC(=O)O)n2ncc3cc(OCCc4ccc5c(n4)NCCC5)ccc32)cn1 (centres unmarked) [Example 92, 3-(2-Methoxypyrimidin-5-yl)-3-(5-(2-(5,6,7,8-tetrahydro-1,8-naphthyridin-2-yl)ethoxy)-1H-indazol-1-yl)propanoic acid, TFA]	31	0.39	5000	210	2.4
O=C(O)CC(c1cnc2c(c1)OCCN2)n1ncc2cc(OCCc3ccc4c(n3)NCCC4)ccc21 (centres unmarked) [Example 97, TFA]	10	0.59	5000	100	2.6
O=C(O)C[C@@H](c1cncc(CO)c1)n1ncc2cc(OCCc3ccc4c(n3)NCCC4)ccc21 [Example 100, (5)-3-(5-(Hydroxymethyl)pyridin-3-yl)-3-(5-(2-(5,6,7,8-tetrahydro-1,8-naphthyridin-2-yl)ethoxy)-1H-indazol-1-yl)propanoic acid]	14	0.41	4400	140	2.9
O=C(O)CC(c1cncc(C2OCCO2)c1)n1ncc2cc(OCCc3ccc4c(n3)NCCC4)ccc21 (centres unmarked) [Example 104, 3-(5-(1,3-Dioxolan-2-yl)pyridin-3-yl)-3(5-(2-(5,6,7,8-tetrahydro-1,8-naphthyridin-2-yl)ethoxy)-1H-indazol-1yl)propanoic acid]	12	0.28	1800	30	2.61
O=C(O)CC(c1cnc2[nH]ncc2c1)n1ncc2cc(OCCc3ccc4c(n3)NCCC4)ccc21 (centres unmarked) [Example 106, 3-(1H-Pyrazolo[3,4-b]pyridin-5-yl)-3-(5-(2-(5,6,7,8-tetrahydro-1,8-naphthyridin-2-yl)ethoxy)-1H-indazol-1-yl)propanoic acid, 2 TFA]	23	2.6	3000	78	1.3
CCOc1ncc([C@H](CC(=O)O)n2ncc3cc(OCCc4ccc5c(n4)NCCC5)ccc32)cn1 [Example 107, (S)-3-(2-Ethoxypyrimidin-5-yl)-3-(5-(2-(5,6,7,8-tetrahydro-1,8-naphthyridin-2-yl)ethoxy)-1H-indazol-1-yl)propanoic acid, TFA]	15	0.32	300	64	2.4

Now from value to compound:

IC50 (human αVβ6) [nM]	IC50 (human αVβ5) [nM]	IC50 (human αVβ8) [nM]	IC50 (human αVβ1) [nM]	IC50 (human αVβ3) [nM]	SMILES
19	0.46	2200	63	1.6	Cn1ncc2cc(C(CC(=O)O)n3ncc4cc(OCCc5ccc6c(n5)NCCC6)ccc43)cnc21 (centres unmarked) [Example 117, 3-(1-Methyl-1H-pyrazolo[3,4-b]pyridin5-yl)-3-(5-(2-(5,6,7,8-tetrahydro-1,8-naphthyridin-2-yl)ethoxy)-1H-indazol-1-yl)propanoic acid, 2 TFA]
12	1.1	3100	4300	2	COc1ncc([C@H](CC(=O)O)n2cc3ccc(CCc4ccc5c(n4)NCCC5)cc3n2)cn1 [Example 118, (5)-3-(2-Methoxypyrimidin-5-yl)-3-(6-(2-(5,6,7,8-tetrahydro-1,8-naphthyridin-2-yl)ethyl)-2H-indazol-2-yl)propanoic acid]
10.6	0.6	4400	98	1.4	O=C(O)CC(c1cnc(N2CCC2)nc1)n1ncc2cc(OCCc3ccc4c(n3)NCCC4)ccc21 (centres unmarked) [Example 119, 3-(2-(Azetidin-1-yl)pyrimidin-5-yl)-3-(5-(2-(5,6,7,8-tetrahydro-1,8-naphthyridin-2-yl)ethoxy)-1H-indazol-1-yl)propanoic acid, 2 TFA]
16	0.2	7500	200	1.5	Cn1cc2cc(C(CC(=O)O)n3ncc4cc(OCCc5ccc6c(n5)NCCC6)ccc43)cnc2n1 (centres unmarked) [Example 120, 3-(2-Methyl-2H-pyrazolo[3,4-b]pyridin-5-yl)-3-(5-(2-(5,6,7,8-tetrahydro-1,8-naphthyridin-2-yl)ethoxy)-1H-indazol-1-yl)propanoic acid, 2 TFA]
8.8	0.46	2600	71	3.1	O=C(O)CC(c1cncc(-c2cnco2)c1)n1ncc2cc(OCCc3ccc4c(n3)NCCC4)ccc21 (centres unmarked) [Example 121, 3-(5-(Oxazol-5-yl)pyridin-3-yl)-3-(5-(2-(5,6,7,8-tetrahydro-1,8-naphthyridin-2-yl)ethoxy)-1H-indazol-1-yl)propanoic acid]
